Experimental data from patent publication US10485805B2, “Finafloxacin for use in the treatment of urinary tract infections” (MerLion Pharmaceuticals Pte. Ltd., priority 2015, dated 2019).
Where “and” joins values, the source holds several entries; their conditions need not be identical. Equal entries are not always repeated.

Legend:
Pseudomonas aeruginosa = experiment: Reduction of viable bacteria after 1 h exposure in broth adjusted to different pH values; format: cell-based; conditions: 1 h of incubation, inoculum 10^6 colony forming units per ml
Protocol: (§1) An overnight inoculum of 10^6 colony forming units per ml broth adjusted to different pH values of different pathogens was exposed to finafloxacin. Bacterial growth was determined before and after 1 h of incubation.

[1] = system: Stenotrophomonas maltophilia clinical isolate; experiment: as above; format: cell-based; conditions: 1 h of incubation, inoculum 10^6 colony forming units per ml
Protocol: as §1

[2] = system: fluoroquinolone-susceptible pathogens in the urine; experiment: Concentration of pathogens in the urine of patients with uncomplicated UTIs after a single oral dose; format: in vivo; conditions: for Bacteria per ml urine - hours after dose: 2 hours: 2 hours after oral dose of 300 mg finafloxacin or 250 mg ciprofloxacin; for Bacteria per ml urine - hours after dose: 2 hours / Bacteria per ml urine - hours after dose: 4 hours / Bacteria per ml urine - hours after dose: 8 hours: individual patients, uncomplicated UTI; for Bacteria per ml urine - hours after dose: 4 hours: 4 hours after oral dose of 300 mg finafloxacin or 250 mg ciprofloxacin; for Bacteria per ml urine - hours after dose: 8 hours: 8 hours after oral dose of 300 mg finafloxacin or 250 mg ciprofloxacin
Protocol: Patients with uncomplicated UTIs were treated with an oral dose of 300 mg finafloxacin or 250 mg of ciprofloxacin and the concentrations of the fluoroquinolone-susceptible pathogens in the urine were determined before and 2, 4 and 8 hours after intake of the drugs. (−bacterial titers below 10^3).

[3] = system: complicated UTIs or pyelonephritis; experiment: Double-blind, randomized clinical study, complicated UTIs or pyelonephritis: treatment success (combined clinical and microbiological response); format: in vivo, patients; conditions: 17 days after start of treatment
[4] = Solubility of finafloxacin in the presence of Tris; format: physicochemical; conditions: compared with other buffer substances (e.g. phosphate buffer)
Description: (§2) However, Tris is herein used as solubility enhancing agent. […] Both effects lead to a completely unexpected result. Tris is therefore to be regarded as a specific tool to considerably enhance the solubility of finafloxacin in solutions. By preparing compositions comprising Tris it is possible to dissolve finafloxacin stably in such an amount therein that these compositions can effectively be used as parenteral compositions for the treatment of UTIs.

[5] = Stability of finafloxacin solutions comprising Tris; format: physicochemical; conditions: compositions comprising Tris
Description: as §2

[6] = system: isolate (pathogen from urine of patients with uncomplicated UTI); experiment: MIC of the patients' urine isolates; format: cell-based; conditions: ciprofloxacin MIC of each patient's isolate (patients 1-7, one line per patient)

SMILES	number of viable bacteria in the medium reduced by (Pseudomonas aeruginosa; pH 5.2)	number of viable bacteria in the medium reduced by (Pseudomonas aeruginosa; pH 6.2)	number of viable bacteria in the medium reduced by (Pseudomonas aeruginosa; pH 7.2)	number of viable bacteria in the medium reduced by ([1]; pH 5.2)	number of viable bacteria in the medium reduced by ([1]; pH 7.2)	Bacteria per ml urine - hours after dose: 2 hours [2]	Bacteria per ml urine - hours after dose: 2 hours ([2]; listed as finafloxacin)	Bacteria per ml urine - hours after dose: 4 hours [2]	Bacteria per ml urine - hours after dose: 8 hours [2]	time after intake within which pathogens are eradicated in the urine ([2]; oral formulation, patients with uncomplicated UTIs)	treatment success (combined clinical response and microbiological response) ([3]; overall treatment duration 5 days (3 days intravenous 800 mg daily, then oral 800 mg daily))	treatment success (combined clinical response and microbiological response) ([3]; overall treatment duration 10 days (3 days intravenous, then 7 days oral))	solubility [4]	stability of solutions [5]	Bacteria per ml urine - hours after dose: 2 hours ([2]; listed as ciprofloxacin)	Bacteria per ml urine - hours after dose: 4 hours ([2]; listed as ciprofloxacin)	MIC of isolate [Cipro mg/L] [6]
N#Cc1c(N2C[C@@H]3NCCO[C@H]3C2)c(F)cc2c(=O)c(C(=O)O)cn(C3CC3)c12 [Finafloxacin, (−)-8-cyano-1-cyclopropyl-6-fluoro-7-[(4aS,7aS)-hexahydropyrrolo[3,4-B]-1,4-oxazin-6(2H)-yl]-4-oxo-1,4-dihydroquinoline-3-carboxylic acid]	98.6%	99.3%	99.9%	87.4%	99.8%	— (bacterial titers below 10^3)	below 10^3 Bacteria per ml urine	— (bacterial titers below 10^3)	— (bacterial titers below 10^3)	≤ 2 h	70.3%	67.6%	high solubility	long term stability	–	–	–
O=C(O)c1cn(C2CC2)c2cc(N3CCNCC3)c(F)cc2c1=O [Ciprofloxacin, reference compound]	–	–	–	–	–	— (bacterial titers below 10^3) and 2.0 × 10^3 Bacteria per ml urine and 6.1 × 10^4 Bacteria per ml urine	–	— (bacterial titers below 10^3) (2×) and 2.7 × 10^3 Bacteria per ml urine	— (bacterial titers below 10^3)	–	–	–	–	–	above 10^3 Bacteria per ml urine	above 10^3 Bacteria per ml urine	0.012 mg/L (3×) and 0.19 mg/L (2×) and 0.008 mg/L (2×)
